{"source": "patent US9750723B2", "about": "“Prevention and treatment of non-alcoholic fatty liver disease” (Ohio University, priority 2014, dated 2017)", "key": {"[1]": {"system": "patient having NAFLD", "assay": "Therapeutic use of phenylmethimazole to treat NAFLD (Example 5)", "assay_type": "in vivo, human", "details": "once daily oral dose of 3 mg/kg for 16 weeks, contemplated result", "description": "Experimental Protocol. A patient having NAFLD is prescribed phenylmethimazole to reduce the fat content in their liver. After determination of a baseline level of fat content in their liver, the patient takes a once daily oral dose of 3 mg/kg of body weight of phenylmethimazole for a period of 16 weeks, during which fat content in their liver tissue is determined via liver function testing, liver ultrasound, and liver biopsy."}, "[2]": {"system": "C57BL/6J mice on the HFD", "assay": "Evaluation of phenylmethimazole in preventing NAFLD in mice (Example 2)", "assay_type": "in vivo", "description": "Triglycerides were quantified in accordance with the following general protocol, based upon the Salmon and Flatt Method of Liver Saponification. 50-100 mg of liver tissue was placed into an Eppendorf tube and weighed. Equal volume per weight of 3 M KOH (in 65% EtOH) was added to the tube and vortexed. The tube was placed at 70° C. for 1 hr to activate digestion. The tubes were vortexed every 15 minutes. The tube was set at room temperature overnight to allow for complete digestion, and was vortexed periodically. The sample was diluted to a final concentration of 100 mg of liver tissue per 600 μl fluid; the sample was diluted by adding 2 M Tris-HCl (un-pHed) to a final concentration of 50 mM. Where a second dilution was required, the sample was diluted using 50 mM Tris-HCl (pH 7.5). Triglycerides-GPO (0.5 mL, liquid; Pointe Scientific Cat. No. T7532-500; Fisher Scientific, Pittsburgh, Pa.) were aliquoted into Eppendorf tubes and warmed in a 37° C. water bath for 5-10 minutes. Glycerol standards (0, 1, 2.5, 5, 7.5 and 10 mmol/L) were made by diluting 10 mmol/L stock of glycerol, such as, e.g., with 50 mM Tris-HCl. 5 μL of the sample and glycerol standards (0, 1, 2.5, 5, 7.5 and 10 mmol/L) were added to 0.5 mL of the triglycerides-GPO, mixed, and incubated at room temperature for 5 minutes. The mixture was then vortexed and added (200 μL) to each well of a 96-well flat-bottom ELISA plate (in duplicate). Absorbance (i.e., optical density) was read at 500 nm. The concentrations of the samples were determined via use of a plot of glycerol standards concentration (mmol/L) with respect to optical density (i.e., O.D.) at 500 nm. The concentration of glycerol (mg glycerol/g tissue) was then calculated and triglyceride concentration was determined, in accordance with calculations known to those of ordinary skill in the art.\nExperimental Protocol. 7 week old male C57BL/6J mice were placed on either a LFD (i.e., having a fat content of 10%, N=8) or a HFD (i.e., having a fat content of 60%, N=40). The mice placed on the LFD served as a control. […]\nAfter 18 weeks, all of the C57BL/6J mice were euthanized. […] More specifically, NAFLD was evaluated in the liver tissue of the euthanized C57BL/6J mice microscopically and molecularly. Following euthanasia, the liver of each mouse was removed and divided, wherein one portion was used for the microscopic analysis of NAFLD and another portion was used for the molecular analysis of NAFLD (i.e., quantification of triglycerides). Quantification of triglycerides was performed in accordance with the general protocol described in Example 1."}, "[3]": {"system": "C57BL/6J mice placed on an HFD", "assay": "Evaluation of phenylmethimazole in treating NAFLD in C57BL/6J mice fed high fat diet (Example 3)", "assay_type": "in vivo", "details": "HFD mice with NAFLD, ip once daily 1, 3 or 10 mg/kg/day for 16 weeks (up to 24 weeks); contemplated result", "description": "Experimental Protocol. C57BL/6J mice are placed on an HFD containing 60% fat (by % Kcal) (Diet #D12492, Research Diets, Inc.) for a period of weeks (as determined by the results of Example 1) until development of NAFLD is observed and clearly distinguishable from LFD-fed mice of the same age (between 4-8 weeks). At the time or after NAFLD is observed, once daily ip injections of phenylmethimazole (i.e., C10), DMSO, or sham are administered. 5 mice are then euthanized weekly thereafter to characterize the effects of C10, DMSO, and/or sham on treatment of NAFLD for the period of 16 weeks post-initiation of C10, DMSO, and sham administration. The period of time for which treatment is administered will be extended to 24 weeks if no effect of C10 administration on treatment of NAFLD is observed. The following Table further illustrates the experimental design: […]\nNAFLD is evaluated in the liver of the HFD mice macroscopically, microscopically, and molecularly. […] Then, the liver of each mouse is split in half, wherein one half is used for microscopic analysis of NAFLD and the remaining half is used for molecular analysis of NAFLD (i.e., quantification of triglycerides). Quantification of triglycerides is performed in accordance with the general protocol described in Example 1."}, "[4]": {"system": "patient at risk for developing NAFLD", "assay": "Therapeutic use of phenylmethimazole to prevent development of NAFLD (Example 4)", "assay_type": "in vivo, human", "details": "once daily oral dose of 1 mg/kg chronically, contemplated result", "description": "Experimental Protocol. A patient at risk for developing NAFLD is prescribed phenylmethimazole to prevent excess accumulation of fat. The patient takes a once daily oral dose of 1 mg/kg of body weight of phenylmethimazole chronically, during which fat content in the liver is determined via liver function testing, liver ultrasound, and liver biopsy."}}, "data": [{"smiles": "Cn1c(-c2ccccc2)cnc1S", "note": "[phenylmethimazole, 5-Phenylmethimazole]", "values": [{"measurement": "fat content in the patient's liver", "setting": "[1]", "value": "reduced relative to the baseline level"}, {"measurement": "fatty liver disease, macroscopically observed in liver tissue", "setting": "[2]; ip 0.1 mg/kg, 1 mg/kg or 10 mg/kg once daily for 18 weeks, compared to HFD mice with sham injection or DMSO", "value": "much less fatty liver disease despite obesity"}, {"measurement": "triglyceride concentration in liver tissue (FIG. 4)", "setting": "[2]; ip 1 mg/kg or 10 mg/kg once daily for 18 weeks, compared to HFD mice with no phenylmethimazole", "value": "lower triglyceride concentration"}, {"measurement": "prevention of NAFLD", "setting": "[2]; ip 0.1, 1, 10 mg/kg once daily for 18 weeks", "value": "prevented NAFLD in the mice fed the HFD in a dose-dependent manner"}, {"measurement": "fatty liver disease, microscopic observation of liver tissue (FIG. 3(B)-(D))", "setting": "[2]; ip 0.1, 1 or 10 mg/kg once daily for 18 weeks, compared to HFD mice with sham injection or DMSO", "value": "much less fatty liver disease"}, {"measurement": "fat content in the liver tissue of the mice", "setting": "[3]", "value": "reduced relative to a baseline level"}, {"measurement": "excess accumulation of fat in the liver", "setting": "[4]", "value": "no excess accumulation of fat has occurred"}]}]}
